Reference: patent US9492468B2, “Methods and compositions for treatment of acute heart failure” (PERICOR THERAPEUTICS, INC., priority 2008, dated 2016)
Structures can show the parent of a compound that is named as a salt.

Legend:
[1] = system: dogs with advanced heart failure; assay: GP-531 infusion simultaneously with 8-SPT (non-selective adenosine antagonist); assay type: in vivo, dog; settings: for Cardiac output (CO) / Heart rate (HR) / LV end-diastolic pressure (LVEDP) / LV end-diastolic volume (EDV) / LV end-systolic volume (ESV) / Mean aortic pressure (mAoP) / Stroke volume (SV) / Systemic vascular resistance (SVR): GP-531 infusion simultaneously with 8-SPT infusion
Protocol: At the completion of the 6 hour constant infusion study, a secondary study was performed in 3 heart failure dogs to assess the effects of GP-531 in the presence of the non-selective adenosine antagonist 8-p-sulfophenyl theophylline (8-SPT). After baseline hemodynamic and ventriculographic measurements, 8-SPT was administered as 10 mg/kg intravenous bolus followed by 10 mg/kg/hr constant infusion for 3 hours. Infusion of GP-531 tartrate was initiated simultaneously with infusion of 8-SPT at a dose of 10 μg/kg/hr and also maintained for 3 hours. Hemodynamic and ventriculographic measurements were made at 1, 2 and 3 hours.
All hemodynamic measurements were made during left and right heart catheterizations in anesthetized dogs at each specified study time point. Heart rate (HR), mean aortic pressure (mAoP), LV end-diastolic pressure (LVEDP), stroke volume (SV), cardiac output (CO) and systemic vascular resistance (SVR) were measured at each study time point. Left ventriculograms were performed during cardiac catheterization after completion of the hemodynamic measurements. Left ventriculograms were obtained with the dog placed on its right side and digitally recorded during the injection of 20 ml of contrast material (RENO-M-60 Squibb, Princeton, N.J.). Correction for image magnification was made using a radiopaque grid placed at the level of the LV. LV end-systolic (ESV) and end-diastolic volumes (EDV) were calculated from angiographic silhouettes using the area length method (Dodge H T, et al, Am J Cardiol. 1966; 18:10-24.). Premature beats and post-extra-systolic beats were excluded from the analysis. LV ejection fraction (EF) was calculated as the ratio of the difference of end-diastolic and end-systolic volumes to end-diastolic volume times 100, as described above.
Within group hemodynamic and angiographic data were analyzed using repeated measures analysis of variance (ANOVA) with alpha set at 0.05. If the overall ANOVA was significant, then pairwise comparisons between baseline and drug or placebo dose/time point were performed using the Student-Newman-Keuls test. For this test, a p-value of <0.05 was considered significant. All data are reported as the mean±SEM.

[2] = previous studies; cited from earlier work
[3] = system: Troponin-I; assay: Plasma troponin-I, 6 hours infusion study; assay type: in vivo, dog; settings: HF dogs n=6; for Plasma TnI: iv 10 μg/kg/min constant infusion
Protocol: Six heart failure dogs described in Example 1 were used. Studies using active drug and placebo were performed in each dog in random order a minimum of one week apart. After baseline hemodynamic, angiographic and echocardiographic measurements, GP-531 tartrate or placebo was administered as a continuous constant intravenous infusion for 6 hours. The dose of GP-531 tartrate was 10 μg/kg/min. Complete hemodynamic, angiographic and echocardiographic measurements were made during baseline, and at 1, 2, 3, 4, 5 and 6 hours after initiating drug infusion. In addition, myocardial oxygen consumption (MVO2) was measured at baseline and 4 and 6 hours after initiating drug or saline infusion. LV pressure-volume relationships (P-V Loops) were also measured at baseline and at 6 hours after initiating drug or saline infusion to assess load independent contractility and relaxation. Venous blood samples were obtained at baseline and hourly thereafter. Blood samples (at least […]) were centrifuged at 3000 rpm for 10 minutes and plasma withdrawn and placed in cryostorage tubes and stored upright at −20° C. until needed. Venous blood samples were used to evaluate plasma levels of troponin-I and plasma levels of n-terminal pro-brain natriuretic peptide (NT-proBNP).
Plasma biomarkers were measured in all dogs at all study time points. Troponin I (TnI) was determined in plasma based on the principle of the double antibody sandwich enzyme-linked immunosorbent assay (ELISA) (Hirano, T., et al, Immunol Today 1990, 11:443-449) and NT-pro-BNP based on competitive ELISA (Bonow, R. O. Circulation 1996, 93:1946-1950). Both biomarkers were assayed using commercially available assay kits. Kits for NT-proBNP and TnI were purchased from ALPCO Diagnostics, Salem, N.H. Using standard curves and software, the concentration of each biomarker was expressed as ng/ml for TnI and fmol/ml for NT-proBNP.

[4] = molecular target: T1, NBTI-sensitive adenosine transporter (Homo sapiens, UniProt Q99808); assay: Ligand status at adenosine transporter; assay type: binding
T1 sequence (Q99808 1-456): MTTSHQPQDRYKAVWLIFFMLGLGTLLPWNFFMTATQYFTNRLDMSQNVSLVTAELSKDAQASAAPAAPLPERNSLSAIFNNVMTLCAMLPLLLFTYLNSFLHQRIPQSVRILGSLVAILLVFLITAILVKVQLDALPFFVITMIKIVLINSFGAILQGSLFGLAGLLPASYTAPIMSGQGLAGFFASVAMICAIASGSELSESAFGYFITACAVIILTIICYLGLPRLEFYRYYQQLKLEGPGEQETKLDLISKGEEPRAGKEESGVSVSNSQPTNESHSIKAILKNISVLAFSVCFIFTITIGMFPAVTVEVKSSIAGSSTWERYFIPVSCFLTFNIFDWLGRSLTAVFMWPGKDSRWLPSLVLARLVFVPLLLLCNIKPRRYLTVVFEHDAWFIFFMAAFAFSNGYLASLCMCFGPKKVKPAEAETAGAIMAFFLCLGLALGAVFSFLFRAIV

[5] = in man; cited from earlier work
[6] = molecular target: T2, A3 receptors (Homo sapiens, UniProt P0DMS8); assay: Ligand status at adenosine A3 receptor; assay type: binding
T2 sequence (P0DMS8 1-318): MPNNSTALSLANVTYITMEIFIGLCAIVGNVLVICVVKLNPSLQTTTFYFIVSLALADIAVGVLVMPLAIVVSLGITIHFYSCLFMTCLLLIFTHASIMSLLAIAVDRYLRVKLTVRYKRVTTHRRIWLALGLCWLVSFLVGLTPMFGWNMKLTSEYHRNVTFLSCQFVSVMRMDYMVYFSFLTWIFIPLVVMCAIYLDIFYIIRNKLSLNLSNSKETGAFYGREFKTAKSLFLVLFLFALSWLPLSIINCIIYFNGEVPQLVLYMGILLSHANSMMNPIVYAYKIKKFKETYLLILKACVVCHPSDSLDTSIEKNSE

[7] = HF dogs n=3, administered simultaneously with 8-SPT, 3 h

## NC(=O)c1ncn(C2OC(CNCc3ccccc3)C(O)C2O)c1N (stereo not shown) [GP-531 tartrate]
[1]; [7]
  Effect on CO: no effects
  Effect on EDV: no effects
  Effect on EF: no effects
  Effect on ESV: no effects
  Effect on HR: no effects
  Effect on LVEDP: no effects
  Effect on SV: no effects
  Effect on SVR: no effects
  Effect on mAoP: no effects

## NC(=O)c1ncn(C2OC(CNCc3ccccc3)C(O)C2O)c1N [GP-531, 5-amino-1-β-D-(5-benzylamino-5-deoxy-1-β-D-ribofuranosyl)imidazole-4 carboxamide]
[2]
  Metabolism: not metabolized
  Route of clearance: cleared almost entirely intact in urine
[1]; HF dogs n=3, 1 h
  Cardiac output (CO): 1.51 ± 0.08 L/min
  Heart rate (HR): 80 ± 4 beats/min
  LV end-diastolic pressure (LVEDP): 16 ± 0.0 mmHg
  LV end-diastolic volume (EDV): 69 ± 3 mL
  LV end-systolic volume (ESV): 50 ± 3 mL
  Mean aortic pressure (mAoP): 97 ± 9 mmHg
  Stroke volume (SV): 19 ± 0.6 rnl
  Systemic vascular resistance (SVR): 5089 ± 203 dynes-sec-cm^−5
[1]; HF dogs n=3, 2 h
  Cardiac output (CO): 1.57 ± 0.15 L/min
  Heart rate (HR): 81 ± 5 beats/min
  LV end-diastolic pressure (LVEDP): 16 ± 0.3 mmHg
  LV end-diastolic volume (EDV): 69 ± 3 mL
  LV end-systolic volume (ESV): 49 ± 2 mL
  Mean aortic pressure (mAoP): 82 ± 6 mmHg
  Stroke volume (SV): 19 ± 0.9 rnl
  Systemic vascular resistance (SVR): 4191 ± 84 dynes-sec-cm^−5
[1]; HF dogs n=3, 3 h
  Cardiac output (CO): 1.53 ± 0.05 L/min
  Heart rate (HR): 81 ± 6 beats/min
  LV end-diastolic pressure (LVEDP): 16 ± 0.3 mmHg
  LV end-diastolic volume (EDV): 68 ± 3 mL
  LV end-systolic volume (ESV): 49 ± 3 mL
  Mean aortic pressure (mAoP): 82 ± 7 mmHg
  Stroke volume (SV): 19 ± 1.0 rnl
  Systemic vascular resistance (SVR): 4297 ± 253 dynes-sec-cm^−5
[1]; HF dogs, administered in conjunction with 8-SPT, non-selective adenosine receptor antagonist
  Benefits on LV function in conjunction with 8-SPT: abolished
[3]; 1 h
  Plasma TnI: 0.57 ± 0.02 pg/mL
[3]; 2 h
  Plasma TnI: 0.58 ± 0.02 pg/mL
[3]; 3 h
  Plasma TnI: 0.38 ± 0.03 pg/mL
[3]; 4 h
  Plasma TnI: 0.43 ± 0.03 pg/mL
[3]; 5 h
  Plasma TnI: 0.41 ± 0.03 pg/mL
[3]; 6 h
  Plasma TnI: 0.42 ± 0.06 pg/mL
[3]; iv 10 μg/kg/min for 6 h
  Effect on plasma troponin-I: significantly reduced
[4]
  Ligand for NBTI-sensitive adenosine transporter: has not been shown to be a ligand
[5]
  Oral bioavailability: ~10%
[6]
  Ligand for A3 receptors: has not been shown to be a ligand
